Assay results from patent US7485641B2, “Substituted 3-amino-pyrrolidino-4-lactams” (Pfizer, Inc., priority 2006, dated 2009).
pIC50: −log10 of the molar value. Where a name gives a salt, the structure may show the parent alone.

Each compound was assayed against T1, DPP-IV (Homo sapiens, UniProt P27487) (assay: In vitro assay for dipeptidyl peptidase inhibition). Conditions: at 300 nM; n-value given in brackets.
T1 construct: purchased Enzyme Systems Products SPE-01
Assay type: biochemical

T1 sequence (P27487 whole entry, species assumed): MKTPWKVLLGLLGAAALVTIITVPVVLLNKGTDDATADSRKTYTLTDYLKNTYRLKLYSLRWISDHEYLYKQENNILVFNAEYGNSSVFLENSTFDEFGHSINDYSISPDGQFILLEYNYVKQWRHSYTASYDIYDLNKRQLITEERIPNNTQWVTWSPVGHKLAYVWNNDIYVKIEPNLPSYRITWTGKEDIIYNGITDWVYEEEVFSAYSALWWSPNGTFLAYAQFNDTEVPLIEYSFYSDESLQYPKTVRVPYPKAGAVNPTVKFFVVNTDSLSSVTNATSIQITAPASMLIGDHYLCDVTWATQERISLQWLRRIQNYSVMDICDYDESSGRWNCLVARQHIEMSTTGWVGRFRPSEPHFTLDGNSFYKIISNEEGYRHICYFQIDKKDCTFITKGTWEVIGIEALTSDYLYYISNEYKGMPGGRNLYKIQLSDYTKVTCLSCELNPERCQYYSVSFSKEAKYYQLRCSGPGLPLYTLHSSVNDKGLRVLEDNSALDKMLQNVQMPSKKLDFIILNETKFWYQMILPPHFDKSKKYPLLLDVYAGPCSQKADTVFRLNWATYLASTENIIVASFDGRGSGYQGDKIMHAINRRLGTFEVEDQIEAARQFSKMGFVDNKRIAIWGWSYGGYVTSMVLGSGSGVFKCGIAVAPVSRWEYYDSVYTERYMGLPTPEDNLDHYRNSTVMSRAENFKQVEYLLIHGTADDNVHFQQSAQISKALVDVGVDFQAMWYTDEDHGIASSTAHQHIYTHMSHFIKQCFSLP

For `CC(Oc1cc(N2C[C@H](N)[C@@H](N3CCCCC3=O)C2)ncn1)C(F)(F)F.O=C(O)C(F)(F)F` (stereo partly drawn) [Example 93, 1-((3S,4S)-4-Amino-1-(6-(1,1,1-trifluoropropan-2-yloxy)pyrimidin-4-yl)pyrrolidin-3-yl)piperidin-2-onetrifluoroacetate], the “DPP-IV Percent Inhibition at 300 nM” value was 13.8%(4).

Same assay, conditions: n-value given in brackets; read-out: DPP-IV IC50

Going from `N[C@H]1CN(c2ncnc(N3CCC(F)(F)C3)n2)C[C@@H]1N1CCCCC1=O` [Example 11, 1-{(3S,4S)-4-Amino-1-[4-(3,3-difluoro-pyrrolidin-1-yl)-[1,3,5]triazin-2-yl]-pyrrolidin-3-yl}-piperidin-2-onedihydrochloride] to `N[C@H]1CN(c2ncnc(N3C[C@@H](F)[C@@H](F)C3)n2)C[C@@H]1N1CCCCC1=O` [Example 28, 1-((3S,4S)-4-Amino-1-(4-((3R,4S)-3,4-difluoropyrrolidin-1-yl)-1,3,5-triazin-2-yl)pyrrolidin-3-yl)piperidin-2-onetrifluoroacetate], the pIC50 falls from 7.43 to 7.17 (0.26 log units). The first is the more potent here.

Compared with `CC(C)(O)c1ccc2c(N3C[C@H](N)[C@@H](N4CCCCC4=O)C3)ncnc2c1` [Example 126, 1-((3S,4S)-4-amino-1-(7-(2-hydroxypropan-2-yl)quinazolin-4-yl)pyrrolidin-3-yl)piperidin-2-one], `COc1cccc2c(N3C[C@H](N)[C@@H](N4CCCCC4=O)C3)ncnc12` [Example 108, 1-((3S,4S)-4-Amino-1-(8-methoxyquinazolin-4-yl)pyrrolidin-3-yl)piperidin-2-one trifluoroacetate] is 0.42 log units lower in pIC50: 7.18 for the first, 6.76 for the second.

First: CCc1nc(N2C[C@H](N)[C@@H](N3CCCCC3=O)C2)cc(N2CCC(F)(F)C2)n1 [Example 15, 1-((3S,4S)-4-amino-1-(6-(3,3-difluoropyrrolidin-1-yl)-2-ethylpyrimidin-4-yl)pyrrolidin-3-yl)piperidin-2-one]
Second: CSc1nc(N2C[C@H](N)[C@@H](N3CCCCC3=O)C2)cc(N2CCC(F)(F)C2)n1 [Example 19, 1-((3S,4S)-4-amino-1-(6-(3,3-difluoropyrrolidin-1-yl)-2-(methylthio)pyrimidin-4-yl)pyrrolidin-3-yl)piperidin-2-one]
The pIC50 of the first is 0.27 log units higher: 7.40 for the first, 7.13 for the second.

First: N#Cc1ccccc1OC1CCN(c2ncnc(N3C[C@H](N)[C@@H](N4CCCCC4=O)C3)n2)CC1 [Example 37, 2-(1-(4-((3S,4S)-3-Amino-4-(2-oxopiperidin-1-yl)pyrrolidin-1-yl)-1,3,5-triazin-2-yl)piperidin-4-yloxy)benzonitriletrifluoroacetate]
Second: CO[C@@H]1CCN(c2ncnc(N3C[C@H](N)[C@@H](N4CCCCC4=O)C3)n2)C1 [Example 39, 1-((3S,4S)-4-Amino-1-(4-((R)-3-methoxypyrrolidin-1-yl)-1,3,5-triazin-2-yl)pyrrolidin-3-yl)piperidin-2-onetrifluoroacetate]
The pIC50 of the first is 0.47 log units higher: 6.96 for the first, 6.49 for the second. The first is the more potent here.

First: Cc1nc(-c2ccccc2)cc(N2C[C@H](N)[C@@H](N3CC(F)(F)CCC3=O)C2)n1 [Example 83, 1-((3S,4S)-4-amino-1-(2-methyl-6-phenylpyrimidin-4-yl)pyrrolidin-3-yl)-5,5-difluoropiperidin-2-one]
Second: COc1ccc2oc(C(=O)N3C[C@H](N)[C@@H](N4CC(F)(F)CCC4=O)C3)cc2c1 [Example 155, 1-((3S,4S)-4-amino-1-(5-methoxybenzofuran-2-carbonyl)pyrrolidin-3-yl)-5,5-difluoropiperidin-2-one]
The pIC50 of the first is 0.48 log units higher: 7.47 for the first, 6.99 for the second.

`N[C@H]1CN(c2ncnc3cc(OCc4ccccc4)ccc23)C[C@@H]1N1CCCCC1=O` [Example 114, 1-((3S,4S)-4-amino-1-(7-(benzyloxy)quinazolin-4-yl)pyrrolidin-3-yl)piperidin-2-one] and `N[C@H]1CN(c2ncnc3cc(Oc4ccccc4)ccc23)C[C@@H]1N1CCCCC1=O` [Example 113, 1-((3S,4S)-4-amino-1-(7-phenoxyquinazolin-4-yl)pyrrolidin-3-yl)piperidin-2-one] are within 0.2 log units of each other in pIC50: 6.96 for the first, 7.14 for the second.

Compared with `CC(C)(C)c1nc(N2C[C@H](N)[C@@H](N3CCCCC3=O)C2)cc(N2CCC(F)(F)C2)n1` [Example 22, 1-((3S,4S)-4-amino-1-(2-tert-butyl-6-(3,3-difluoropyrrolidin-1-yl)pyrimidin-4-yl)pyrrolidin-3-yl)piperidin-2-one], `CC(C)c1nc(N2C[C@H](N)[C@@H](N3CCCCC3=O)C2)cc(N2CCC(F)(F)C2)n1` [Example 16, 1-((3S,4S)-4-amino-1-(6-(3,3-difluoropyrrolidin-1-yl)-2-isopropylpyrimidin-4-yl)pyrrolidin-3-yl)piperidin-2-oneformate] is 0.79 log units higher in pIC50: 6.08 for the first, 6.87 for the second.

Compared with `N[C@H]1CN(c2ncnc3cc(Sc4cccc(F)c4)ccc23)C[C@@H]1N1CCCCC1=O` [Example 130, 1-((3S,4S)-4-amino-1-(7-(3-fluorophenylthio)quinazolin-4-yl)pyrrolidin-3-yl)piperidin-2-oneformate], `N[C@H]1CN(c2ncnc3cc(Oc4ccc(C(F)(F)F)cn4)ccc23)C[C@@H]1N1CCCCC1=O` [Example 127, 1-((3S,4S)-4-amino-1-(7-(5-(trifluoromethyl)pyridin-2-yloxy)quinazolin-4-yl)pyrrolidin-3-yl)piperidin-2-one] is 0.36 log units lower in pIC50: 7.22 for the first, 6.86 for the second.

Going from `CCCOc1cc(N2C[C@H](N)[C@@H](N3CCCCC3=O)C2)ncn1` [Example 89, 1-((3S,4S)-4-Amino-1-(6-propoxypyrimidin-4-yl)pyrrolidin-3-yl)piperidin-2-one trifluoroacetate] to `N[C@H]1CN(c2cc(N3CCc4nc[nH]c4C3)ncn2)C[C@@H]1N1CCCC1=O` [Example 64, 1-((3S,4S)-4-Amino-1-(6-(6,7-dihydro-3H-imidazo[4,5-c]pyridin-5(4H)-yl)pyrimidin-4-yl)pyrrolidin-3-yl)pyrrolidin-2-onedihydrochloride], the pIC50 falls from 6.50 to 5.61 (0.89 log units).

First: N[C@H]1CN(c2cc(N3CCC(F)(F)C3)nc(C(F)(F)F)n2)C[C@@H]1N1CC(F)(F)CCC1=O [Example 13, 1-((3S,4S)-4-amino-1-(6-(3,3-difluoropyrrolidin-1-yl)-2-(trifluoromethyl)pyrimidin-4-yl)pyrrolidin-3-yl)-5,5-difluoropiperidin-2-one]
Second: N[C@H]1CN(c2ncnc(N3C[C@@H](F)[C@H](F)C3)n2)C[C@@H]1N1CCCCC1=O [Example 29, 1-((3S,4S)-4-Amino-1-(4-((3R,4R)-3,4-difluoropyrrolidin-1-yl)-1,3,5-triazin-2-yl)pyrrolidin-3-yl)piperidin-2-onetrifluoroacetate]
The pIC50 of the first is 0.44 log units higher: 7.25 for the first, 6.81 for the second.

Compared with `N[C@H]1CN(c2ncnc(NC3CCCCC3)n2)C[C@@H]1N1CCCCC1=O` [Example 75, 1-[(3S,4S)-4-Amino-1-(4-cyclohexylamino-[1,3,5]triazin-2-yl)-pyrrolidin-3-yl]-piperidin-2-onetrifluoroacetate], `COc1ccc2c(N3C[C@H](N)[C@@H](N4CCCCC4=O)C3)nncc2c1` [Example 146, 1-((3S,4S)-4-amino-1-(6-methoxyphthalazin-1-yl)pyrrolidin-3-yl)piperidin-2-one] is 0.57 log units higher in pIC50: 6.77 for the first, 7.34 for the second.

In the case of `CS(=O)(=O)c1ccccc1S(=O)(=O)Oc1ccc2c(N3C[C@H](N)[C@@H](N4CCCCC4=O)C3)ncnc2c1` [Example 96, 4-((3S,4S)-3-amino-4-(2-oxopiperidin-1-Vl)pyrrolidin-1-yl)quinazolin-7-yl 2-(methylsulfonyl)benzenesulfonate], the pIC50 was 8.70.
